Earlier results, collected in patent publication US20210369646A1, “Composition for local tumescent anesthesia” (priority 2020, published 2021).
Like-named read-outs stand apart in the source and are kept apart here.

Legend:
[1] = tested on: alpha 1 acid glycoprotein; conditions: bound to alpha 1 acid glycoprotein almost entirely
plasminogen = plasminogen (Homo sapiens, UniProt P00747)
Chain of plasminogen (P00747 20-810 limits assumed): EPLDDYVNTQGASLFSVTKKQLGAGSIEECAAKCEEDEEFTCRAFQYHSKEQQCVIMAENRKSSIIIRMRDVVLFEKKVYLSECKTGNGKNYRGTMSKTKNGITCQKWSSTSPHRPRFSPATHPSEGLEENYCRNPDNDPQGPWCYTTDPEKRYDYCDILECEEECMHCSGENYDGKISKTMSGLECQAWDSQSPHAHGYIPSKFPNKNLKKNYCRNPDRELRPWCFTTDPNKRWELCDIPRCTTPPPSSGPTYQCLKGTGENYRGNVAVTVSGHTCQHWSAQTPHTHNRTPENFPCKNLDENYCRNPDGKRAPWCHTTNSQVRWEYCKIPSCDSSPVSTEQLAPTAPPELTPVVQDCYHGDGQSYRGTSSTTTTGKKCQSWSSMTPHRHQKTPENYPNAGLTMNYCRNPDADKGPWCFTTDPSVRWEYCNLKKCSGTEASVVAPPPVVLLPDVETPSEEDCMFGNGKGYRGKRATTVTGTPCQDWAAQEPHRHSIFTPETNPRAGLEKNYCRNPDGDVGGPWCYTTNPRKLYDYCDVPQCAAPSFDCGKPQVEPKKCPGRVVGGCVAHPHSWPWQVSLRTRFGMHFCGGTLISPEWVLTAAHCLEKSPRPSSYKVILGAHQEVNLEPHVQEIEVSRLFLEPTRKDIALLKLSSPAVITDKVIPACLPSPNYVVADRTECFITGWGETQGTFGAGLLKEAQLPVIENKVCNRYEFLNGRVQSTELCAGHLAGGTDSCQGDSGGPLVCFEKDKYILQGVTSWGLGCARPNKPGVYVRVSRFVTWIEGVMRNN

CNC[C@H](O)c1ccc(O)c(O)c1 [Epinephrine]
total doses excreted into the urine (after next 18 hours): 50% | total doses excreted into the urine (by the first 6 hours): 50% | middle lifetime (in vivo): 20 s | principal metabolite: conjugated metanephrine (in vivo): 40% | principal metabolite: vanillylmandelic acid (in vivo): 40% | maximum concentration after a subcutaneous injection (time) (subcutaneous injection): 20 to 40 min

CCCN1CCCC[C@H]1C(=O)Nc1c(C)cccc1C [Ropivacaine]
excreted through the kidneys into the urine (in vivo): ~86% | transformed into 3-hydroxy-ropivacaine (aromatic hydroxylation) (liver, share of all anesthetic agent): 99% | free protein form [1]: 6%

NC[C@H]1CC[C@H](C(=O)O)CC1 [Tranexamic acid]
plasmatic protein bound (plasmatic protein): 3% | free protein form (plasmatic protein; in words): no free protein form | middle lifetime (after the administration): 11000 s | excreted through the kidneys into the urine without a conjugated form (by the first 24 hours): 90% | affinity to plasminogen (plasminogen): high affinity
